Source: US12643882B2, “Inhibitors of human respiratory syncytial virus and metapneumovirus” (priority 2022, dated 2026)
pEC50: −log10 of the molar value. Where two headings read alike, the source gives them in different places.

Assays:
RSV-A2-GFP virus = assay: microbe, parasite or virus in culture; format: cell-based, Human Respiratory Syncytial Virus
Method in brief: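 IC50 (GFP-expressing cell counts by Acumen imaging) and CC50 (same-well CellTiter-Glo) were obtained by 4-parameter logistic fitting. Compounds were tested in 10-point 3-fold series for 96 h at 37° C, 5% CO2. Thawed Calu-1 ARF cells were infected at MOI 1.2 with GFP-reporter RSV-A2 in 2% FBS DMEM.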

hMPV-GFP virus = assay: microbe, parasite or virus in culture; format: cell-based, human metapneumovirus
Method in brief: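 Antiviral IC50 was derived from imaging counts of GFP-expressing cells, with CC50 from a same-well CellTiter-Glo read, both by 4-parameter logistic fitting. VERO cells plus hMPV-GFP (MOI 1.25) were exposed 48 h at 37 °C to 10-point 3-fold compound dilutions (typical final 40,300–2 nM).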

[1] = Calu-1 cells infected with RSV-A2-GFP, 96 hrs, GFP-expressing cells counted, read-out: RSV EC50
[2] = VERO cells infected with hMPV-GFP, 48 hrs, GFP-expressing cells counted, read-out: hMPV EC50
[3] = human respiratory syncytial virus, Calu-1, 96 h, read-out: RSV EC50, Calu-1 cells infected with RSV-A2-GFP, 96 hrs, GFP-expressing cells counted
[4] = human metapneumovirus, Vero, 48 h, read-out: hMPV EC50, VERO cells infected with hMPV-GFP, 48 hrs, GFP-expressing cells counted

CC(C)(N)c1cc(O[C@H]2[C@@H]3CN(C(=O)c4cc(-c5ncccn5)ns4)C[C@@H]32)nc(-c2ccc(F)cc2)c1 [Example 77, ((1R,5S,6s)-6-((4-(2-aminopropan-2-yl)-6-(4-fluorophenyl)pyridin-2-yl)oxy)-3-azabicyclo[3.1.0]hexan-3-yl)(3-(pyrimidin-2-yl)isothiazol-5-yl)methanone]
pEC50 (RSV-A2-GFP virus; [1]): > 8.00
pEC50 (hMPV-GFP virus; [2]): < 7.00

Cc1nc(-c2ncccn2)oc1C(=O)N1C[C@@H]2[C@H](C1)[C@H]2Oc1cc(C(C)(C)N)cc(-c2ccc(F)cc2)n1 [Example 78, ((1R,5S,6s)-6-((4-(2-aminopropan-2-yl)-6-(4-fluorophenyl)pyridin-2-yl)oxy)-3-azabicyclo[3.1.0]hexan-3-yl)(4-methyl-2-(pyrimidin-2-yl)oxazol-5-yl)methanone]
pEC50 (RSV-A2-GFP virus; [3]): 7.00 to 8.00
pEC50 (hMPV-GFP virus; [4]): < 7.00

Cc1nn(-c2ncccn2)c(F)c1C(=O)N1C[C@@H]2[C@H](C1)[C@H]2Oc1cc(C(C)(C)N)cc(-c2ccc(F)cc2)n1 [Example 79, ((1R,5S,6s)-6-((4-(2-aminopropan-2-yl)-6-(4-fluorophenyl)pyridin-2-yl)oxy)-3-azabicyclo[3.1.0]hexan-3-yl)(5-fluoro-3-methyl-1-(pyrimidin-2-yl)-1H-pyrazol-4-yl)methanone]
pEC50 (RSV-A2-GFP virus; [3]): > 8.00
pEC50 (hMPV-GFP virus; [4]): < 7.00

Cc1nn(-c2ncccn2)cc1C(=O)N1C[C@@H]2[C@H](C1)[C@H]2Oc1cc(C(C)(C)N)cc(-c2ccc(F)c(F)c2)n1 [Example 80, ((1R,5S,6s)-6-((4-(2-aminopropan-2-yl)-6-(3,4-difluorophenyl)pyridin-2-yl)oxy)-3-azabicyclo[3.1.0]hexan-3-yl)(3-methyl-1-(pyrimidin-2-yl)-1H-pyrazol-4-yl)methanone]
pEC50 (RSV-A2-GFP virus; [3]): > 8.00
pEC50 (hMPV-GFP virus; [4]): 7.00 to 8.00

Cc1nn(-c2ncccn2)cc1C(=O)N1C[C@@H]2[C@H](C1)[C@H]2Oc1cc(C(C)(C)N)cc(-c2cc(F)c(F)cc2F)n1 [Example 81, ((1R,5S,6s)-6-((4-(2-aminopropan-2-yl)-6-(2,4,5-trifluorophenyl)pyridin-2-yl)oxy)-3-azabicyclo[3.1.0]hexan-3-yl)(3-methyl-1-(pyrimidin-2-yl)-1H-pyrazol-4-yl)methanone]
pEC50 (RSV-A2-GFP virus; [1]): > 8.00
pEC50 (hMPV-GFP virus; [2]): 7.00 to 8.00

Cc1nn(-c2ncccn2)cc1C(=O)N1C[C@@H]2[C@H](C1)[C@H]2Oc1cc(C(C)(C)N)cc(-c2cc(F)c(F)c(F)c2)n1 [Example 82, ((1R,5S,6s)-6-((4-(2-aminopropan-2-yl)-6-(3,4,5-trifluorophenyl)pyridin-2-yl)oxy)-3-azabicyclo[3.1.0]hexan-3-yl)(3-methyl-1-(pyrimidin-2-yl)-1H-pyrazol-4-yl)methanone]
pEC50 (RSV-A2-GFP virus; [1]): > 8.00
pEC50 (hMPV-GFP virus; [2]): 7.00 to 8.00

Cc1nn(-c2ncccn2)cc1C(=O)N1C[C@@H]2[C@H](C1)[C@H]2Oc1cc(C(C)(C)N)cc(-c2ccc(F)c(Cl)c2)n1 [Example 83, ((1R,5S,6s)-6-((4-(2-aminopropan-2-yl)-6-(3-chloro-4-fluorophenyl)pyridin-2-yl)oxy)-3-azabicyclo[3.1.0]hexan-3-yl)(3-methyl-1-(pyrimidin-2-yl)-1H-pyrazol-4-yl)methanone]
pEC50 (RSV-A2-GFP virus; [1]): > 8.00
pEC50 (hMPV-GFP virus; [2]): < 7.00

Cc1nn(-c2ncccn2)cc1C(=O)N1C[C@@H]2[C@H](C1)[C@H]2Oc1cc(C(C)(C)N)cc(-c2ccc(Cl)c(F)c2)n1 [Example 84, ((1R,5S,6s)-6-((4-(2-aminopropan-2-yl)-6-(4-chloro-3-fluorophenyl)pyridin-2-yl)oxy)-3-azabicyclo[3.1.0]hexan-3-yl)(3-methyl-1-(pyrimidin-2-yl)-1H-pyrazol-4-yl)methanone]
pEC50 (RSV-A2-GFP virus; [1]): > 8.00
pEC50 (hMPV-GFP virus; [2]): < 7.00

Cc1nn(-c2ncccn2)cc1C(=O)N1C[C@@H]2[C@H](C1)[C@H]2Oc1cc(C(C)(C)N)cc(-c2ccc(Cl)cc2)n1 [Example 85, ((1R,5S,6s)-6-((4-(2-aminopropan-2-yl)-6-(4-chlorophenyl)pyridin-2-yl)oxy)-3-azabicyclo[3.1.0]hexan-3-yl)(3-methyl-1-(pyrimidin-2-yl)-1H-pyrazol-4-yl)methanone]
pEC50 (RSV-A2-GFP virus; [1]): > 8.00
pEC50 (hMPV-GFP virus; [2]): 7.00 to 8.00

Cc1nn(-c2ncccn2)cc1C(=O)N1C[C@@H]2[C@H](C1)[C@H]2Oc1cc(C(C)(C)N)cc(-c2ccc(C(F)(F)F)cc2)n1 [Example 86, ((1R,5S,6s)-6-((4-(2-aminopropan-2-yl)-6-(4-(trifluoromethyl)phenyl)pyridin-2-yl)oxy)-3-azabicyclo[3.1.0]hexan-3-yl)(3-methyl-1-(pyrimidin-2-yl)-1H-pyrazol-4-yl)methanone]
pEC50 (RSV-A2-GFP virus; [1]): > 8.00
pEC50 (hMPV-GFP virus; [2]): 7.00 to 8.00

Cc1nn(-c2ncccn2)cc1C(=O)N1C[C@@H]2[C@H](C1)[C@H]2Oc1cc(C(C)(C)N)cc(-c2ccc(C(F)(F)F)nc2)n1 [Example 87, ((1R,5S,6s)-6-((4-(2-aminopropan-2-yl)-6′-(trifluoromethyl)-[2,3′-bipyridin]-6-yl)oxy)-3-azabicyclo[3.1.0]hexan-3-yl)(3-methyl-1-(pyrimidin-2-yl)-1H-pyrazol-4-yl)methanone]
pEC50 (RSV-A2-GFP virus; [1]): > 8.00
pEC50 (hMPV-GFP virus; [2]): < 7.00

COc1cc(C(F)(F)F)ccc1-c1cc(C(C)(C)N)cc(O[C@H]2[C@@H]3CN(C(=O)c4cn(-c5ncccn5)nc4C)C[C@@H]32)n1 [Example 88, ((1R,5S,6s)-6-((4-(2-aminopropan-2-yl)-6-(2-methoxy-4-(trifluoromethyl)phenyl)pyridin-2-yl)oxy)-3-azabicyclo[3.1.0]hexan-3-yl)(3-methyl-1-(pyrimidin-2-yl)-1H-pyrazol-4-yl)methanone]
pEC50 (RSV-A2-GFP virus; [1]): > 8.00
pEC50 (hMPV-GFP virus; [2]): < 7.00

Cc1nn(-c2ncccn2)cc1C(=O)N1C[C@@H]2[C@H](C1)[C@H]2Oc1cc(C(C)(C)N)cc(-c2cc3ccccc3[nH]2)n1 [Example 89, ((1R,5S,6s)-6-((4-(2-aminopropan-2-yl)-6-(1H-indol-2-yl)pyridin-2-yl)oxy)-3-azabicyclo[3.1.0]hexan-3-yl)(3-methyl-1-(pyrimidin-2-yl)-1H-pyrazol-4-yl)methanone]
pEC50 (RSV-A2-GFP virus; [1]): > 8.00
pEC50 (hMPV-GFP virus; [2]): < 7.00

Cc1nn(-c2ncccn2)cc1C(=O)N1C[C@@H]2[C@H](C1)[C@H]2Oc1cc(C(C)(C)N)cc(C2=CCC(C)(C)CC2)n1 [Example 90, ((1R,5S,6s)-6-((4-(2-aminopropan-2-yl)-6-(4,4-dimethylcyclohex-1-en-1-yl)pyridin-2-yl)oxy)-3-azabicyclo[3.1.0]hexan-3-yl)(3-methyl-1-(pyrimidin-2-yl)-1H-pyrazol-4-yl)methanone]
pEC50 (RSV-A2-GFP virus; [1]): > 8.00
pEC50 (hMPV-GFP virus; [2]): < 7.00

CC(C)(N)c1cc(O[C@H]2[C@@H]3CN(C(=O)c4cn(-c5ncccn5)nc4C(F)F)C[C@@H]32)nc(-c2ccc(F)c(F)c2)c1 [Example 91, ((1R,5S,6s)-6-((4-(2-aminopropan-2-yl)-6-(3,4-difluorophenyl)pyridin-2-yl)oxy)-3-azabicyclo[3.1.0]hexan-3-yl)(3-(difluoromethyl)-1-(pyrimidin-2-yl)-1H-pyrazol-4-yl)methanone]
pEC50 (RSV-A2-GFP virus; [1]): > 8.00
pEC50 (hMPV-GFP virus; [2]): < 7.00

CC(C)(N)c1cc(O[C@H]2[C@@H]3CN(C(=O)c4cn(-c5ncccn5)nc4C(F)(F)F)C[C@@H]32)nc(-c2ccc(F)c(F)c2)c1 [Example 92, ((1R,5S,6s)-6-((4-(2-aminopropan-2-yl)-6-(3,4-difluorophenyl)pyridin-2-yl)oxy)-3-azabicyclo[3.1.0]hexan-3-yl)(1-(pyrimidin-2-yl)-3-(trifluoromethyl)-1H-pyrazol-4-yl)methanone]
pEC50 (RSV-A2-GFP virus; [1]): > 8.00
pEC50 (hMPV-GFP virus; [2]): < 7.00

CC(C)(N)c1cc(O[C@H]2[C@@H]3CN(C(=O)c4cn(-c5ncccn5)nc4C(F)(F)F)C[C@@H]32)nc(-c2ccc(C(F)(F)F)cc2)c1 [Example 93, ((1R,5S,6s)-6-((4-(2-aminopropan-2-yl)-6-(4-(trifluoromethyl)phenyl)pyridin-2-yl)oxy)-3-azabicyclo[3.1.0]hexan-3-yl)(1-(pyrimidin-2-yl)-3-(trifluoromethyl)-1H-pyrazol-4-yl)methanone]
pEC50 (RSV-A2-GFP virus; [1]): > 8.00
pEC50 (hMPV-GFP virus; [2]): < 7.00

Cc1nn(-c2ncccn2)cc1C(=O)N1C[C@@H]2[C@H](C1)[C@H]2Oc1cc(C(C)(C)N)cc(-n2ncc3c(Cl)cccc32)n1 [Example 94, ((1R,5S,6s)-6-((4-(2-aminopropan-2-yl)-6-(4-chloro-1H-indazol-1-yl)pyridin-2-yl)oxy)-3-azabicyclo[3.1.0]hexan-3-yl)(3-methyl-1-(pyrimidin-2-yl)-1H-pyrazol-4-yl)methanone]
pEC50 (RSV-A2-GFP virus; [3]): > 8.00
pEC50 (hMPV-GFP virus; [4]): < 7.00

CC(C)(N)c1cc(O[C@H]2[C@@H]3CN(C(=O)c4cn(-c5ncccn5)nc4CO)C[C@@H]32)nc(-c2ccc(F)c(F)c2)c1 [Example 95, ((1R,5S,6s)-6-((4-(2-aminopropan-2-yl)-6-(3,4-difluorophenyl)pyridin-2-yl)oxy)-3-azabicyclo[3.1.0]hexan-3-yl)(3-(hydroxymethyl)-1-(pyrimidin-2-yl)-1H-pyrazol-4-yl)methanone]
pEC50 (RSV-A2-GFP virus; [3]): > 8.00
pEC50 (hMPV-GFP virus; [4]): < 7.00

Cc1nc(-c2ncccn2)sc1C(=O)N1C[C@@H]2[C@H](C1)[C@H]2Oc1cc(C(C)(C)N)cc(-c2ccc(F)cc2F)n1 [Example 97, ((1R,5S,6s)-6-((4-(2-aminopropan-2-yl)-6-(2,4-difluorophenyl)pyridin-2-yl)oxy)-3-azabicyclo[3.1.0]hexan-3-yl)(4-methyl-2-(pyrimidin-2-yl)thiazol-5-yl)methanone]
pEC50 (RSV-A2-GFP virus; [3]): > 8.00
pEC50 (hMPV-GFP virus; [4]): 7.00 to 8.00
